In brackets after ≈: the same amount, converted by molar mass. Read-outs that look alike come from different tables or passages of the source.

Common to all, as to assay type: cell-based
Assay [1] deals with E. coli DC2 (penetration mutant). Particulars: concentration 100 μg/ml.
The next assay relates to E. coli DC0. The assay can be described thus: Microdilution test (MIC). The settings on record: E. coli DC0. The method, then:
(§1) The minimum inhibiting concentrations (MICs) were determined for the following bacterial strains: Pseudomonas aeruginosa NCTC 10701, NCTC 10662, SG 137, ATCC 27853, KW 799 WT and KW 799/61, E. coli DCO, DC2 and ATCC 25922, Serratia marcescens SG 621; Salmonella gallinarum ATCC 9184, Klebsiella pneumoniae ATCC 10031 and SG 117.
(§2) With the test germs KW 799/WT and /61 of Pseudomonas and DCO and DC2 of E. coli, the effect of improved penetration capacity on the efficacy of the substances was investigated.
A general note: Broth dilution looks for growth in wells or tubes with falling amounts of substance.

For assay [2], the system named is Pseudomonas aeruginosa KW 799/61. The assay can be described thus: Microdilution test (MIC). The procedure: as §1, §2
Assay [3] deals with Pseudomonas aeruginosa KW 799 WT. The assay can be described thus: Microdilution test (MIC). Particulars: P. aeruginosa KW 799/WT. The method, then:
as §1, §2

For assay [4], the system named is Pseudomonas aeruginosa SG 137 (carbenicillin-resistant). As to the kind of experiment: Agar diffusion test. Particulars: concentration 100 μg/ml, P. aeruginosa SG 137.
Assay [5] deals with Stenotrophomonas maltophilia GN 12873. As to the kind of experiment: Microdilution test (MIC).
The subject of a further assay is E. coli DC0 (wild type). The assay can be described thus: Agar diffusion test. The settings on record: concentration 100 μg/ml.
Assay [6] has as its system Pseudomonas aeruginosa KW 799/61 (penetration mutant). The settings on record: P. aeruginosa KW799/61.
For assay [7], the system named is Pseudomonas aeruginosa KW 799 WT (wild type). As to the kind of experiment: Agar diffusion test. The settings on record: concentration 100 μg/ml, P. aeruginosa KW799/WT. In general terms: A growth-free zone around the sample is the usual read-out of agar diffusion tests.
Assay [8] concerns Salmonella gallinarum ATCC 9184. The settings on record: concentration 100 μg/ml, Salmonella galinarum ATCC 9184.
The subject of assay [9] is Serratia marcescens SG 621. The assay can be described thus: Microdilution test (MIC). The method, then: as §1
In the next assay the test system is E. coli ATCC 25922. The assay can be described thus: Microdilution test (MIC). The method, then:
as §1

Assay [10] has as its system Pseudomonas aeruginosa SG 137. The assay can be described thus: Microdilution test (MIC). Particulars: P. aeruginosa SG 137. The procedure:
as §1

For assay [11], the system named is Klebsiella pneumoniae ATCC 10031. The assay can be described thus: Microdilution test (MIC). The method, then: as §1
In assay [12] the test system is Pseudomonas aeruginosa NCTC 10662. The assay can be described thus: Microdilution test (MIC). The settings on record: P. aeruginosa NCTC 10662. The procedure:
as §1

Assay [13] deals with Stenotrophomonas maltophilia GN 12873. As to the kind of experiment: Agar diffusion test. Particulars: concentration 100 μg/ml.
For another assay, the system named is E. coli DC2. The assay can be described thus: microbe, parasite or virus in culture. The procedure:
as §1, §2

The test system of assay [14] is Pseudomonas aeruginosa ATCC 27853 (wild type). As to the kind of experiment: Agar diffusion test. Particulars: concentration 100 μg/ml; P. aeruginosa ATCC 27853.
For assay [15], the system named is Klebsiella pneumoniae SG 117. As to the kind of experiment: Agar diffusion test. The settings on record: concentration 100 μg/ml.
The subject of assay [16] is Klebsiella pneumoniae ATCC 10031. As to the kind of experiment: Agar diffusion test. The settings on record: concentration 100 μg/ml.
Assay [17] concerns Pseudomonas aeruginosa ATCC 27853. As to the kind of experiment: Microdilution test (MIC). Particulars: P. aeruginosa ATCC 27853. The procedure:
as §1

In the case of `CC(=O)Oc1cccc(C(=O)NCCCC[C@H](NC(=O)c2cccc(OC(C)=O)c2OC(C)=O)C(=O)N[C@@H](C(=O)N[C@@H]2C(=O)N3[C@@H]2SC(C)(C)[C@@H]3C(=O)O)c2ccccc2)c1OC(C)=O` [Substance 31, N-[L-2,6-bis-(2,3-diacetoxybenzoylamino)-hexanoyl]-ampicillin], the “inhibition spot diameter in the agar diffusion test” value (“inhibition spot diameter” for short) in [1] (listed as 31) worked out at 33 mm; in [4] (listed as 31) it was 28 mm; with E. coli DC0 (wild type) (listed as 31), 27 mm; in assay [6] (concentration 100 μg/ml), 37 mm; in [7] (listed as 31), 27 mm; in assay [8] (listed as 31) it was 29 mm. The “inhibition spot diameter” value in assay [13] (listed as 31) is 23 mm. Moreover, the “MIC values, microdilution test” value is 12.5 µg/mL (≈ 13.6 µM) with E. coli DC0; 0.2 µg/mL (≈ 0.218 µM) in assay [2]; 0.78 µg/mL (≈ 0.85 µM) in [3]; 0.4 µg/mL (≈ 0.436 µM) in [5] (listed as 31); 25 µg/mL (≈ 27.2 µM) in assay [9]; 0.78 µg/mL (≈ 0.85 µM) against E. coli ATCC 25922 (listed as 31). The “MIC values, microdilution test” value in assay [10] was determined as 0.1 µg/mL (≈ 0.109 µM); in assay [11], 0.4 µg/mL (≈ 0.436 µM); in assay [12] (listed as 31), 6.25 µg/mL (≈ 6.81 µM); against E. coli DC2, 0.2 µg/mL (≈ 0.218 µM).
With `CC(=O)Oc1cccc(C(=O)Nc2cc(NC(=O)c3cccc(OC(C)=O)c3OC(C)=O)cc(C(=O)N[C@@H](C(=O)N[C@@H]3C(=O)N4[C@@H]3SC(C)(C)[C@@H]4C(=O)O)c3ccccc3)c2)c1OC(C)=O` [Substance 36, N-[3,5-bis-(2,3-diacetoxy-benzoylamino)-benzoyl]-ampicillin], the “inhibition spot diameter” value in assay [1] was 19 mm; in assay [14] it was 19 mm; in assay [4], 25 mm; in [15], 16 mm; in the assay on E. coli DC0 (wild type) it was 13 mm; in assay [6] (concentration 100 μg/ml), 29 mm. In addition, the “inhibition spot diameter” value in assay [16] was found to be 17 mm; in assay [7], 25 mm; in assay [8], 23 mm; in [13], 24 mm. The “MIC values, microdilution test” value came out at 1.56 µg/mL (≈ 1.69 µM) in assay [5]; 25 µg/mL (≈ 27.1 µM) against E. coli ATCC 25922; 0.4 µg/mL (≈ 0.433 µM) in assay [10]; 6.25 µg/mL (≈ 6.76 µM) in assay [12]; 3.12 µg/mL (≈ 3.38 µM) in assay [17].
With `CC(=O)OC[C@H](NC(=O)c1cccc(OC(C)=O)c1OC(C)=O)C(=O)N[C@@H](C(=O)N[C@@H]1C(=O)N2[C@@H]1SC(C)(C)[C@@H]2C(=O)O)c1ccccc1` [Substance 32, N-[L-3-Acetoxy-2-(2,3-diacetoxybenzoylamino)-propionyl]-ampicillin], the “inhibition spot diameter” value in assay [1] came to 28 mm; in [4] it was 16 mm; in the assay with E. coli DC0 (wild type), 22 mm; in [6] (concentration 100 μg/ml), 32 mm; in assay [7], 25 mm; in [8] it was 28 mm. Further, the “inhibition spot diameter” value in assay [13] was found to be 19 mm. Further, the “MIC values, microdilution test” value was found to be 12.5 µg/mL (≈ 17.9 µM) against E. coli DC0; 0.4 µg/mL (≈ 0.572 µM) in assay [2]; 1.56 µg/mL (≈ 2.23 µM) in assay [3]; 25 µg/mL (≈ 35.8 µM) in [9]; 1.56 µg/mL (≈ 2.23 µM) in assay [10].
As for `CC(=O)Oc1cccc(C(=O)NCCCC[C@H](NC(=O)c2cccc(OC(C)=O)c2OC(C)=O)C(=O)N[C@@H](C(=O)N[C@@H]2C(=O)N3[C@@H]2SC(C)(C)[C@@H]3C(=O)O)c2ccc(O)cc2)c1OC(C)=O` [Substance Na-35, N-[L-2,6-bis-(2,3-diacetoxy-benzoylamino)-hexanoyl)-amoxicillin], the “inhibition spot diameter” value is 38 mm in assay [1]; 22 mm in assay [14]; 31 mm in assay [4]; 23 mm in [15]; 24 mm in the assay on E. coli DC0 (wild type); “[38] mm” in assay [6] ([ ] at 50 μg/ml). The “inhibition spot diameter” value was found to be 20 mm in assay [16], 30 mm in assay [7], 33 mm in [8] and 28 mm in assay [13]. The “MIC values, microdilution test” value in assay [5] was 6.25 µg/mL (≈ 6.69 µM); against E. coli ATCC 25922 it was 0.2 µg/mL (≈ 0.214 µM); in assay [10], 0.1 µg/mL (≈ 0.107 µM); in assay [12], 1.58 µg/mL (≈ 1.69 µM); in assay [17], 1.56 µg/mL (≈ 1.67 µM).
For the compound `COC(=O)Oc1cccc(C(=O)N(C)c2ccc(C(=O)N[C@@H](C(=O)N[C@@H]3C(=O)N4[C@@H]3SC(C)(C)[C@@H]4C(=O)O)c3ccccc3)cc2)c1OC(=O)OC` [Substance Na-37, N-{4-[(2,3-di-methoxycarbonyloxy-benzoyl)-methyl-amino]-benzoyl}-ampicillin], the “inhibition spot diameter” value stood at 33 mm in assay [1]; 21 mm in assay [14]; 22 mm in [4]; 19 mm in assay [15]; 27 mm in the assay with E. coli DC0 (wild type); 35 mm in assay [6] (concentration 100 μg/ml). Besides, the “inhibition spot diameter” value was found to be 22 mm in [16], 28 mm in assay [7], 29 mm in assay [8] and 16 mm in [13]. The “MIC values, microdilution test” value in assay [5] worked out at 6.25 µg/mL (≈ 8.51 µM); against E. coli ATCC 25922, 3.12 µg/mL (≈ 4.25 µM); in assay [10] it was 0.4 µg/mL (≈ 0.544 µM); in assay [11], 3.12 µg/mL (≈ 4.25 µM); in assay [12], 12.5 µg/mL (≈ 17 µM); in assay [17], 3.12 µg/mL (≈ 4.25 µM).

The record behind these values is patent publication US6380181B1, “Synthetic catechol derivatives, method for production and use thereof” (priority 1996, dated 2002).
